Test results published in the NIST ThermoML archive (doi:10.1021/je800571y).
± gives the expanded uncertainty stated by the source.

Experiment: xn = mol fraction of the nth substance listed
Conditions: 101 kPa, Liquid

CCC(C)(C)O [2-methylbutan-2-ol] + CCC(C)=O
Conditions | mass density, 293.15 K [kg/m3] | mass density, 298.15 K [kg/m3] | mass density, 303.15 K [kg/m3] | mass density, 308.15 K [kg/m3] | mass density, 313.15 K [kg/m3] | viscosity, 293.15 K [mPa·s] | viscosity, 298.15 K [mPa·s] | viscosity, 303.15 K [mPa·s] | viscosity, 308.15 K [mPa·s] | viscosity, 313.15 K [mPa·s]
x2 = 0 | 809.61 ± 1.1 | 805.01 ± 1.1 | 800.41 ± 1.1 | 795.81 ± 1.1 | 791.21 ± 1.2 | 5.108 ± 0.88 | 4.474 ± 0.78 | 3.909 ± 0.69 | 3.387 ± 0.6 | 2.909 ± 0.52
x2 = 0.0803 | 809.22 ± 1.1 | 804.57 ± 1.1 | 799.94 ± 1.1 | 795.3 ± 1.1 | 790.63 ± 1.2 | 3.81 ± 0.67 | 3.35 ± 0.6 | 2.9 ± 0.52 | 2.521 ± 0.46 | 2.26 ± 0.41
x2 = 0.1583 | 808.84 ± 1.1 | 804.15 ± 1.1 | 799.49 ± 1.1 | 794.82 ± 1.1 | 790.09 ± 1.2 | 2.862 ± 0.51 | 2.521 ± 0.46 | 2.14 ± 0.39 | 1.905 ± 0.35 | 1.7 ± 0.32
x2 = 0.2341 | 808.48 ± 1.1 | 803.74 ± 1.1 | 799.06 ± 1.1 | 794.36 ± 1.2 | 789.57 ± 1.2 | 2.105 ± 0.39 | 1.85 ± 0.34 | 1.53 ± 0.29 | 1.421 ± 0.27 | 1.287 ± 0.25
x2 = 0.3077 | 808.13 ± 1.1 | 803.35 ± 1.1 | 798.85 ± 1.1 | 793.92 ± 1.2 | 789.06 ± 1.2 | 1.558 ± 0.29 | 1.37 ± 0.26 | 1.09 ± 0.21 | 1.103 ± 0.22 | 0.9819 ± 0.19
x2 = 0.3794 | 807.79 ± 1.1 | 802.97 ± 1.1 | 798.25 ± 1.1 | 793.49 ± 1.2 | 788.57 ± 1.2 | 1.15 ± 0.22 | 1.054 ± 0.21 | – | 0.84 ± 0.17 | 0.7418 ± 0.15
x2 = 0.449 | 807.47 ± 1.1 | 802.6 ± 1.1 | 797.86 ± 1.1 | 793.07 ± 1.2 | 788.09 ± 1.2 | 0.842 ± 0.17 | 0.8221 ± 0.17 | 0.6863 ± 0.14 | 0.7188 ± 0.15 | 0.5869 ± 0.13
x2 = 0.5168 | 807.16 ± 1.1 | 802.24 ± 1.1 | 797.48 ± 1.1 | 792.67 ± 1.2 | 787.63 ± 1.2 | 0.6725 ± 0.14 | 0.6579 ± 0.14 | 0.5601 ± 0.12 | 0.5865 ± 0.13 | 0.4801 ± 0.11
x2 = 0.5828 | 806.85 ± 1.1 | 801.89 ± 1.1 | 796.12 ± 1.1 | 792.27 ± 1.1 | 787.18 ± 1.2 | 0.5515 ± 0.12 | 0.5913 ± 0.13 | 0.5201 ± 0.11 | 0.5202 ± 0.11 | 0.4017 ± 0.094
x2 = 0.6471 | 806.56 ± 1.1 | 801.56 ± 1.1 | 796.77 ± 1.1 | 791.89 ± 1.2 | 786.74 ± 1.2 | 0.4986 ± 0.11 | 0.5219 ± 0.12 | 0.52 ± 0.11 | 0.4801 ± 0.11 | 0.3511 ± 0.086
x2 = 0.7097 | 806.27 ± 1.1 | 801.23 ± 1.1 | 796.43 ± 1.1 | 791.52 ± 1.2 | 786.32 ± 1.2 | 0.4935 ± 0.11 | 0.4894 ± 0.11 | 0.48 ± 0.11 | 0.4507 ± 0.1 | –
x2 = 0.7707 | 805.99 ± 1.1 | 800.91 ± 1.1 | 796.08 ± 1.1 | 791.15 ± 1.2 | 785.9 ± 1.2 | 0.4482 ± 0.1 | 0.4437 ± 0.1 | 0.4801 ± 0.11 | 0.4505 ± 0.1 | 0.323 ± 0.081
x2 = 0.8302 | 805.71 ± 1.1 | 800.6 ± 1.1 | 795.75 ± 1.1 | 790.79 ± 1.2 | 785.49 ± 1.2 | 0.4457 ± 0.1 | 0.4344 ± 0.1 | 0.4802 ± 0.11 | 0.4503 ± 0.1 | 0.3001 ± 0.077
x2 = 0.8882 | 805.45 ± 1.1 | 800.29 ± 1.1 | 795.42 ± 1.1 | 790.44 ± 1.2 | 785.09 ± 1.2 | 0.4464 ± 0.1 | 0.3813 ± 0.091 | 0.4402 ± 0.1 | 0.4012 ± 0.094 | 0.2999 ± 0.077
x2 = 0.9448 | 805.18 ± 1.1 | 799.99 ± 1.1 | 795.11 ± 1.1 | 790.1 ± 1.2 | 784.7 ± 1.2 | 0.4338 ± 0.1 | 0.3142 ± 0.079 | 0.3601 ± 0.087 | 0.32 ± 0.08 | 0.2997 ± 0.077
